According to US8178509B2, “Method to treat sickle cell disease” (University of Virginia Patent Foundation, priority 2006, dated 2012):

What was measured:
[1] = test system: leukocyte interactions with the endothelium; test: Intravital microscopy of exteriorized cremaster muscle, leukocyte adhesion; format: in vivo, NY-S (NY1DD) mice; conditions: no hypoxia
From the text: An exteriorized cremaster muscle preparation was used to study the microcirculation in vivo as a means of assaying the effect of the test compounds, e.g., ATL146e, on leukocyte interactions with the endothelium. […] In this experiment, mice were not stressed with hypoxia, but the manipulation of the cremaster tissue for microscopic examination itself produces some rolling and adherence of leukocytes, probably due to release of chemokines from damaged tissue. Adherent leukocytes were defined as those which moved less than one circumference in an observational period (30 seconds/vessel). […]
Microscopic observations were made on a Zeiss intravital microscope (Axioskop, Carl Zeiss, Inc., Thomwood, N.Y.) with a saline immersion objective (SW 40/0.75) visualized under bright field illumination. […] Randomly selected venules with diameters between 19 and 54 μm were recorded for 1.5 minutes.
A MicroMotion DC30 video compression card (Pinnacle Systems, Mountain View, Calif.) was used to digitize video recordings from a JVC HR-53600U VHS recorder into a Macintosh computer (Adobe Premiere software). Digitized video clips were analyzed with the public domain NIH image program with custom-written macros. […] Individual comparisons between groups were calculated using a one-tailed t test with p<0.05.

platelets = test: Platelet aggregation (singlet loss) in platelet-rich plasma after in vivo pretreatment, ADP activation; set-up: species or system NY-S (NY1DD) mice; conditions: pretreated in vivo, Alzet mini-pump, 10 ng/kg/min, O/N; all doses of ADP added in vitro
Method: Adenosine 5′-diphosphate (ADP) is a critical mediator of platelet activation. Two members of the P2Y-receptor family (P2Y1, P2Y12) are responsible for the initiation and amplification of the aggregation response.
Mice were first anesthetized with the use of a vaporizer (Vapomatic, A.M. Bickford, INC., Wales Center, N.Y.) delivering 1.5% isoflurane (Abbott Laboratories, Chicago, Ill.). The animals were ventilated with 100% oxygen (tidal volume 0.3 mL; rate 125 breaths/min; respiratory/expiratory ratio 1; positive end-expiratory pressure (PEEP) was between 5 and 10 cm H2O) at a low rate of 0.8 L/min via an animal ventilator (Columbus Instruments, Columbus, Ohio).
Platelet isolation. […]
Platelet aggregation assay—single particle counting. […] The reaction was quenched with glutaraldehyde (1%), and platelet aggregation then evaluated by the loss of platelet singlets, using a resistive-particle counter. The loss of platelet singlets was expressed as a percent value of the control platelet count (platelet count in PRP incubated for 10 minutes in 37° C. in the absence of shear forces).

NY-S (NY1DD) mice [2] = test: Pulmonary histology (H&E), hypoxia-induced vascular congestion; format: in vivo; conditions: 3 hour hypoxia (10% O2); Alzet mini-pump, 10 ng/kg/min, overnight, started prior to hypoxic stress
Method: Under normoxic conditions, while the lungs of the wild type mice are clear, there is a high incidence of focal vascular congestion in the NY-S (NY1DD) mice (FIGS. 6A & 6B, see arrows). The disseminated pink color throughout the section may be due to elevated numbers of possibly adherent capillary red cells. The extent of vascular congestion is exacerbated in the NY-S (NY1DD) mice following 3 hour of hypoxia (10% O2; FIG. 6c). The increased susceptibility of the NY-S (NY1DD) mice to hypoxia-induced lung injury is evidenced both as an increase in the total area of involvement and the size of the vessels congested (see arrow, FIG. 6C).

NY-S (NY1DD) mice [3] = test: Gamma camera imaging of hypoxia-sensitive tracer BRU59-21 in lungs; format: in vivo; conditions: 3 hours hypoxia (10% O2)/1 hour reoxygenation; Alzet mini-pump, 10 ng/kg/min, O/N; untreated vs treated
Method: Animals were subject to 3 hours hypoxia (10% O2)/1 hour reoxygenation. After 30 minutes of reoxygenation the mice were given a bolus intra-jugular injection of BRU59-21 (˜300 μCi). At the end of the reoxygenation period planar gamma camera images were taken with a ten minute acquisition window. The images in FIG. 7 show tracer accumulation in the tissues of hypoxic C57BL/6 and NY-S (NY1DD) mice. […] There is a large non-specific signal present in the abdomen due to hepatic metabolism and clearance of the tracer via the intestinal tract. Anterior to the abdominal signal is a bilateral signal which is absent from the C57/B6 mice and localized to the lungs in the NY-S (NY1DD) mouse.
C57BL/6 and NY-S (NY1DD) mice were subject to 3 hour hypoxia/1 hour reperfusion (10% O2). Thirty minutes after the start of the reperfusion period the mice were anesthetized (ketamine 125 mg/kg; xylazine 12.5 mg/kg, IP) and given a bolus intra jugular injection of BRU59-21 (˜300 μCi). At the end of the reperfusion period planar gamma camera images were collected. Anesthetized mice were imaged side-by-side in planar mode directly on the inverted face of a low energy, high resolution (LEHR) collimator mounted on a Siemens Orbiter gamma camera (Siemens Medical Solutions USA, Inc., Malvern Pa.). […]

NY-S (NY1DD) mice [4] = test: Unrestrained whole-body plethysmography during hypoxic stress; format: in vivo; conditions: 3 hour hypoxic stress (8% O2), Alzet pump, 10 ng/kg/min, overnight
Method: Clinicians have disclosed that breathing disorders can occur in SCD patients during vaso-occlusive crisis (VOC). […] Pain-associated shallow breathing during sickle crisis may contribute to the pathogenesis of acute chest syndrome. To characterize the extent of hypoxia-induced lung injury in NY-S (NY1DD) mice, pulmonary function was assessed using unrestrained whole-body plethysmography during and after exposure to hypoxic air. Naïve NY-S (NY1DD) mice were compared to NY-S (NY1DD) mice which had been treated with ATL146e (Alzet pump, 10 ng/kg/min, overnight). […] Plexiglas chambers (4 in diameter) are connected to a direct airflow sensor (Buxco Max II, Buxco Electronics). Constant airflow through the chambers is maintained at 70 ml/min. The flow signals are amplified by a channel amplifier (EMKA Technologies), converted to a digital signal, and recorded using IOX software (EMKA Technologies). The respiratory parameters minute ventilation (MV, ml/min), respiratory frequency (f, breaths/min), expiratory time (TE, msec), and relaxation time (RT, msec) are calculated and plotted as change over time. The chambers are calibrated by injecting 1 ml of air. The mice are placed unrestrained into the chambers and after a 30 min adjustment period, respiratory activity is recorded while the animal breathes either ambient air or hypoxic gas (8% O2).

C57BL/6 MAECs = test: Static WEHI monocyte adhesion assay on murine aortic endothelial cells; format: cell-based, C57BL/6 mice; conditions: murine TNFα 10 U/ml, positive control
Method: Adhesion of both sickle RBCs and leukocytes in SCD is believed dependent on endothelial activation. […] Murine aortic endothelial cells (MAECs) were prepared from C57BL/6 and NY-S (NY1DD) mice. In a static adhesion assay using WEHI monocytes activation of the endothelium as manifested by increasing monocyte adhesion can be quantified. MAECs prepared from C57BL/6 mice form a monolayer which is not highly activated as assessed by the small number of adherent monocytes. As a positive control for endothelial activation C57BL/6 MAECs were stimulated with murine TNFα (10 U/ml). […] Clearly, the endothelium of NY-S (NY1DD) sickle mice is in a state of activation at baseline.
Aortic endothelial cells from C57BL/6J and NY-S (NY1DD) mice were harvested from the aorta under sterile conditions. A monocyte adhesion assay that utilizes primary MAECs and WEHI78/24 cells were performed according to Hatley et al. WEHI cells are labeled with calcein-AM using standard methods described by the manufacturer (Molecular Probes). For the adhesion assay, MAECs were cultured to confluency in a 48-well plate and incubated with 35,000 calcein-labeled WEHI cells/well for 30 min at 37° C. Non-adherent cells were rinsed, and adherent cells were fixed with 1% glutaraldehyde. The number of adherent monocytes within a 10×10 eyepiece grid at 40× magnification was counted using an epifluorescence microscopy. […]

Row | Molecule | leukocyte adhesion (adherent leukocytes/field) ([1]; bolus injection, intraperitoneal, 5 μg/kg, 30 minutes prior to cremaster exteriorization) | leukocyte adhesion (adherent leukocytes/field) ([1]; infusion, Alzet mini-pump, 10 ng/kg/min, overnight) | platelet activation in platelet rich plasma (platelets) | severity of hypoxia-induced vascular congestion in lung (NY-S (NY1DD) mice [2]) | lung-specific BRU59-21 signal intensity in thoracic cavity (qualitative) (NY-S (NY1DD) mice [3]) | minute volume (NY-S (NY1DD) mice [4]) | breathing frequency (NY-S (NY1DD) mice [4]; n=2 each group) | number of monocytes captured (endothelial activation) (C57BL/6 MAECs)
1 | CCNC(=O)C1OC(n2cnc3c(N)nc(C#CCC4CCC(C(=O)OC)CC4)nc32)C(O)C1O (centres unmarked) [ATL146e, 4-{3-[6-Amino-9-(5-ethylcarbamoyl-3,4-dihydroxy-tetrahydro-furan-2-yl)-9H-purin-2-yl]-prop-2-ynyl}cyclohexanecarboxylic acid methyl ester] | pronounced reduction in leukocyte adhesion | pronounced reduction in leukocyte adhesion | reduced to below control levels | significantly reduced | significantly more lung-specific signal in the untreated mice | respiratory stress of hypoxia was alleviated | significantly reduced | 
2 | TNFα |  |  |  |  |  |  |  | three-fold increase
